The target in experiment [1] is T1, COX-2 (Homo sapiens, UniProt P35354).
T1 sequence (P35354 18-604): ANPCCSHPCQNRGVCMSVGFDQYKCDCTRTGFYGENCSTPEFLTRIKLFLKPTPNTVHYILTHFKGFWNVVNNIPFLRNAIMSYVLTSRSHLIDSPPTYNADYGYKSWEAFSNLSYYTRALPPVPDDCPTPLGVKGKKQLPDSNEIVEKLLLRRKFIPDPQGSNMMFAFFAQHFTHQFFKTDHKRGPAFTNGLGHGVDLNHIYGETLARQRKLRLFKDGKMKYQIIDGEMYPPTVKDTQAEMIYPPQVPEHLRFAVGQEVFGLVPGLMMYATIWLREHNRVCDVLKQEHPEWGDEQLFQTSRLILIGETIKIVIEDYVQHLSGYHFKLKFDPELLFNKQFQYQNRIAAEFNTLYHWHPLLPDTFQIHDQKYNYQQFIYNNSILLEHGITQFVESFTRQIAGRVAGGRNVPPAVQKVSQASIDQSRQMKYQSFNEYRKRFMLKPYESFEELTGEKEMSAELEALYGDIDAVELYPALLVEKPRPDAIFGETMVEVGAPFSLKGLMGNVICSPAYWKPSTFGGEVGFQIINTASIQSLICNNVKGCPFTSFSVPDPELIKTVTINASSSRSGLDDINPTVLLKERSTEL
In words: Human whole blood assay, COX-2 (LPS-induced PGE2 production). As to conditions: LPS-induced PGE2, 24 hours at 37° C., read-out: COX-2 (IC50 μM) HWB. Also noted: endogenous in cells; host or cells: fresh heparinized human whole blood from volunteers, incubated with LPS. The class given is cell-based. Here is the method:
Human whole blood provides a protein and cell-rich milieu appropriate for the study of biochemical efficacy of anti-inflammatory compounds such as selective COX-2 inhibitors. […] This is consistent with the observation that COX-2 inhibitors have no effect on PGE2 production in normal blood. These inhibitors are active only after incubation of human whole blood with LPS, which induces COX-2. This assay can be used to evaluate the inhibitory effect of selective COX-2 inhibitors on PGE2 production. As well, platelets in whole blood contain a large amount of the COX-1 enzyme. Immediately following blood clotting, platelets are activated through a thrombin-mediated mechanism. This reaction results in the production of thromboxane B2 (TxB2) via activation of COX-1. Thus, the effect of test compounds on TxB2 levels following blood clotting can be examined and used as an index for COX-1 activity. Therefore, the degree of selectivity by the test compound can be determined by measuring the levels of PGE2 after LPS induction (COX-2) and TxB2 following blood clotting (COX-1) in the same assay.
A. COX-2 (LPS-induced PGE2 production)
Fresh blood is collected in heparinized tubes by venipuncture from both male and female volunteers. The subjects have no apparent inflammatory conditions and have not taken any NSAIDs for at least 7 days prior to blood collection. Plasma is immediately obtained from a 2 mL blood aliquot to use as blank (basal levels of PGE2). The remaining blood is incubated with LPS (100 μg/ml final concentration, Sigma Chem, #L-2630 from E. coli; diluted in 0.1% BSA (Phosphate buffered saline) for 5 minutes at room temperature. Five hundred μL aliquots of blood are incubated with either 2 μL of vehicle (DMSO) or 2 μL of a test compound at final concentrations varying from 10 nM to 30 μM for 24 hours at 37° C. At the end of the incubation, the blood is centrifuged at 12,000×g for 5 minutes to obtain plasma. A 100 μL aliquot of plasma is mixed with 400 μL of methanol for protein precipitation. The supernatant is obtained and is assayed for PGE2 using a radioimmunoassay kit (Amersham, RPA#530) after conversion of PGE2 to its methyl oximate derivative according to the manufacturer's procedure.

Experiment [2] addresses T1, COX-2. In words: Whole cell assay for COX-2 using CHO[hCOX-2] transfected cell line. In kind it is cell-based. The settings on record: CHO[hCOX-2] cells, PGE2 synthesis, 10 μM AA. Also noted: expressed in transfected cells; host or cells: CHO cells stably transfected with pCDNAIII (CHO[hCOX-2]). From the text: Whole cell assays for COX-2 and COX-1 using CHO transfected cell lines
Chinese hamster ovary (CHO) cell lines which have been stably transfected with an eukaryotic expression vector pCDNAIII containing either the human COX-1 or COX-2 cDNA's are used for the assay. These cell lines are referred to as CHO[hCOX-1] and CHO[hCOX-2], respectively. For cyclooxygenase assays, CHO[hCOX-1] cells from suspension cultures and CHO[hCOX-2] cells prepared by trypsinization of adherent cultures are harvested by centrifugation (300×g, 10 min) and washed once in HBSS containing 15 mM HEPES, pH 7.4, and resuspended in HBSS, 15 mM HEPES, pH 7.4, at a cell concentration of 1.5×10^6 cells/ml. Drugs to be tested are dissolved in DMSO to 66.7-fold the highest test drug concentration. Compounds are typically tested at 8 concentrations in duplicate using serial 3-fold serial dilutions in DMSO of the highest drug concentration. Cells (0.3×10^6 cells in 200 μl) are preincubated with 3 μl of the test drug or DMSO vehicle for 15 min at 37° C. Working solutions of peroxide-free AA (5.5 μM and 110 μM AA for the CHO[hCOX-1] and CHO[COX-2] assays, respectively) are prepared by a 10-fold dilution of a concentrated AA solution in ethanol into HBSS containing 15 mM HEPES, pH 7.4. Cells are then challenged in the presence or absence of drug with the AA/HBSS solution to yield a final concentration of 0.5 μM AA in the CHO[hCOX-1] assay and a final concentration of 10 μM AA in the CHO[hCOX-2] assay. The reaction is terminated by the addition of 10 μl 1N HCl followed by neutralization with 20 μl of 0.5N NaOH. The samples are centrifuged at 300×g at 4° C. for 10 min, and an aliquot of the clarified supernatant is appropriately diluted for the determination of PGE2 levels using an enzyme-linked immunoassay for PGE2 (Correlate PGE2 enzyme immunoassay kit, Assay Designs, Inc.). Cyclooxygenase activity in the absence of test compounds is determined as the difference in PGE2 levels of cells challenged with arachidonic acid versus the PGE2 levels in cells mock-challenged with ethanol vehicle. Inhibition of PGE2 synthesis by test compounds is calculated as a percentage of the activity in the presence of drug versus the activity in the positive control samples.
Compounds of the present invention are inhibitors of cyclooxygenase-2 and are thereby useful in the treatment of cyclooxygenase-2 mediated diseases as enumerated above. The activities of the compounds against cyclooxygenase may be seen in the representative results shown below. In the assay, inhibition is determined by measuring the amount of prostaglandin E2 (PGE2) synthesized in the presence of arachidonic acid, cyclooxygenase-1 or cyclooxygenase-2 and a putative inhibitor. The IC50 values represent the concentration of putative inhibitor required to return PGE2 synthesis to 50% of that obtained as compared to the uninhibited control.

Here are results for 13 compounds from patent publication US6465509B2, “Pyrones as inhibitors of cyclooxygenase-2” (Merck Frosst Canada & Co., priority 2000, dated 2002).

Where only a bound is given, the exact number is not on record here.

Regarding `CS(=O)(=O)c1ccc(-c2ccoc(=O)c2-c2ccccc2)cc1` [Example 1, 4-(4-Methylsulfonyl)phenyl-3-phenyl-pyran-2-one], the IC50 on COX-2 [1] was 2.6 µM; against COX-2 [2], 0.12 µM.
For `Cc1cc(-c2ccc(S(C)(=O)=O)cc2)c(-c2ccc(F)cc2)c(=O)o1` [Example 2, 3-(4-Fluorophenyl)-6-methyl-4-(4-methylsulfonyl)phenyl-pyran-2-one], the half-inhibitory concentration (IC50) on COX-2 [1] was less than 0.4 µM; at COX-2 [2], 0.4 µM.
For `Cc1cc(-c2ccc(S(C)(=O)=O)cc2)c(-c2cccc(F)c2)c(=O)o1` [Example 3, 3-(3-Fluorophenyl)-6-methyl-4-(4-methylsulfonyl)phenyl-pyran-2-one], in that order: less than 0.4 µM and 0.6 µM.
On the same counts, the results for `Cc1cc(-c2ccc(S(C)(=O)=O)cc2)c(-c2ccccc2)c(=O)o1` [Example 4, 6-Methyl-4-(4-methylsulfonyl)phenyl-3-phenyl-pyran-2-one] are less than 0.4 µM and 0.4 µM.
For `CS(=O)(=O)c1ccc(-c2cc(C(F)F)oc(=O)c2-c2ccccc2)cc1` [Example 5, 6-Difluoromethyl-4-(4-methylsulfonyl)phenyl-3-phenyl-pyran-2-one], the values for the half-inhibitory concentration (IC50) at COX-2 [1] and on COX-2 [2] were 1.8 µM and 0.2 µM, respectively.
For `CS(=O)(=O)c1ccc(-c2cc(CF)oc(=O)c2-c2ccccc2)cc1` [Example 6, 6-Fluoromethyl-4-(4-methylsulfonyl)phenyl-3-phenyl-pyran-2-one], in that order: 3.1 µM and 1.1 µM.
For `Cc1cc(-c2ccc(S(C)(=O)=O)cc2)c(Sc2ccccc2)c(=O)o1` [Example 7, 6-Methyl-4-(4-(methylsulfonyl)phenyl)-3-phenylthio-pyran-2-one], in that order: 0.5 µM and 0.14 µM.
On to `Cc1cc(-c2ccc(S(C)(=O)=O)cc2)c(Oc2ccccc2)c(=O)o1` [Example 8, 6-Methyl-4-(4-(methylsulfonyl)phenyl)-3-phenoxy-pyran-2-one], for which the IC50 on COX-2 [1] was less than 0.4 µM; at COX-2 [2], 0.2 µM.
On the same counts, the results for `Cc1cc(-c2ccc(S(C)(=O)=O)cc2)c(-c2cccnc2)c(=O)o1` [Example 9] are 0.6 µM and 2.9 µM.
For `Cc1cc(-c2ccc(S(C)(=O)=O)cc2)c(SC(C)C)c(=O)o1` [Example 10, 3-Isopropylthio-6-methyl-4-(4-(methylsulfonyl)phenyl)-pyran-2-one], in that order: 1.3 µM and 0.8 µM.
On the same counts, the results for `CS(=O)(=O)c1ccc(-c2cc(C(F)(F)F)oc(=O)c2Sc2ccccc2)cc1` [Example 11, 4-(4-(Methylsulfonyl)phenyl)-3-phenylthio-6-trifluoromethyl-pyran-2-one] are 0.3 to 1 µM and 0.01 µM.
Turning to `CC(C)Sc1c(-c2ccc(S(C)(=O)=O)cc2)cc(C(F)(F)F)oc1=O` [Example 12, 3-Isopropylthio-4-(4-(methylsulfonyl)phenyl)-6-trifluoromethyl-pyran-2-one], the half-inhibitory concentration (IC50) at COX-2 [1] was 1 to 3 µM; against COX-2 [2], 0.06 µM.
As to `Cc1cc(-c2ccc(S(C)(=O)=O)cc2)c(CCC(C)(C)O)c(=O)o1` [Example 14, 3-(3-Hydroxy-3-methylbutyl)-6-methyl-4-(4-methylsulfonyl)phenyl-pyran-2-one], the half-inhibitory concentration (IC50) turned out to be 1.2 µM on COX-2 [1] and 2.8 µM at COX-2 [2].
